Assay results published in US20240197823A1, “CATIONIC ANTIMICROBIAL PEPTIDES AND USES THEREOF” (priority 2021, published 2024).
No end group written: not given here.

Legend:
[1] = system: MDR clinical strains of ESKAPE pathogens and E. coli provided by the CDC (AR isolates panel); experiment: Advanced testing, MIC against CDC AR isolates panel; assay type: cell-based; details: colistin-resistant strains
Procedure: (§1) Bacteria. Bacterial clinical isolates, used for initial screening and in previous studies [Greber K E et al., 2017], were anonymously provided by the clinical microbiology laboratory of the University of Pittsburgh medical Center. The panel used for secondary screening was from CDC (Table 4), with resistance profiles data. Bacteria are stored in lock-secured −80° C. freezer and typically retrieved by obtaining single colonies on agar plates prior for subsequent liquid broth cultures. Suspensions of test bacteria were prepared from log phase of growth by diluting overnight cultures at 1:100 with fresh cation-adjusted MHB (MHB2, Millipore Sigma, USA) and incubating for additional 3-4 hours. Bacteria were spun at 3000×g for 10 minutes and the pellet resuspended in test condition media (Millipore Sigma, USA) to determine bacterial turbidity using a Den-1B densitometer (Grant Instruments, USA) at 0.5 McFarland (unit of bacterial density) corresponding to […].
(§2) Antibacterial assays. To examine antibacterial activity, this study used minor modifications of a standard growth inhibition assay endorsed by the Clinical and Laboratory Standards Institute (CLSI), as previously described [Greber K E et al., 2017]. Bacteria were incubated with each of the indicated peptides in MHB2. The bacterial cells were kept in an incubator for 18 hours at 37° C., which is linked to a robotic system that feeds a plate reader every hour with one of 8×96-well plates. This set-up allows the collection of growth kinetic data at A 570 (absorbance at 570 nm) to examine growth inhibition in real time (BioTek Instruments, USA). […] To assess bactericidal properties of the peptide, the assay was modified by using 15% fetal bovine serum (FBS, for a more physiologically relevant test condition) mixed with 25% MHB2 and 60% PBS. Bacterial cells (colony forming unit/mL or CFU/mL) were enumerated after incubating treated bacteria for 3 hours and plating serially diluted samples on broth agar medium at 37° C. overnight. […] For killing kinetics, we slightly modified the bactericidal assay to examine bacterial killing at the MBC (or 2×MBC) as a function of time for up to 3 hours. Data were analyzed using GraphPad Prism software.

P. aeruginosa = experiment: microbe, parasite or virus in culture
Procedure: as §1, §2

[2] = Mouse toxicity, maximum tolerated dose; assay type: in vivo, CD-1 mice
Procedure: Mouse toxicity. For all animal experiments, the protocol #18071776 approved by the Institutional Animal Care and Use Committee (IACUC) of the University of Pittsburgh was used, which is consistent with the NIH guide for the care and use of laboratory animals. In a preliminary (pilot) experiment, female CD-1 mice (3 per group) weighing about 20 g were injected different doses of peptides up to 45 mpk via a lateral tail vein (IV) to determine an MTD (dose that results in no apparent morbidity or mortality). To confirm the MTD determined in the pilot study, CD-1 mice (7 per group) were randomized to receive a dose based on the preliminary MTD (IV) or PBS (100 μL). The animals were monitored for up to 7 days for morbidity and survival.

human red blood cells = details: at 16 μM, published data; cited from earlier work

In the case of RWVRRVRRWVRRVRRWVRRV [E68], the cross-resistance with colistin [1] is reported as “no cross-resistance at all”.
With RWVRRVRRWVRRVRRVVRRW [E70] the cross-resistance with colistin [1] was “no cross-resistance at all”.
Substance RRVWRRVRRVWRRVRRVWRRVV [E75] has an MIC (P. aeruginosa) of 13 µM.
In the case of RRWVRWVRRWVRWVRR [E80], the MIC (P. aeruginosa) is reported as 2 µM.
In the case of RRWVRRVRRVWRRVRRVVRRWV [E4], the cross-resistance with colistin [1] is reported as “no cross-resistance at all”.
In the case of RRVWRWVRRVWRWVRR [E35], the morbidity and mortality ([2]; 7 mice, systemically at 30 mpk) is reported as “no apparent morbidity and mortality” and the “maximum tolerated dose, MTD” value ([2]; CD-1 mice, tail vein (IV)) is reported as 30 mpk.
In the case of “Ac-LKRVWKRVFKLLKRYWRQLKKPVR-NH2 [SAAP-148]”, the “red blood cell (RBC) lysis” value (human red blood cells) is given as “only moderate”.
